{"source": "patent US20240216395A1", "about": "“19-NOR C3,3-DISUBSTITUTED C21 -N-PYRAZOLYL STEROID FOR USE IN TREATING MAJOR DEPRESSIVE DISORDER AND […]” (priority 2021, published 2024)", "key": {"[1]": {"tested_on": "nondependent, recreational users of CNS depressants", "test": "Abuse potential study: MOAA/S sedation scores (dose selection and main study)", "assay_type": "in vivo, human", "details": "dose selection, 60, 80 or 90 mg", "experimental": "The first part of the study, dose selection, was a 3-cohort, randomized, double-blind, placebo-controlled, dose-escalation design to identify 2 doses higher than Compound (1)'s anticipated therapeutic dose (30 mg) to carry forward into the main study (FIG. 30A-30B) (U.S. Department of Health and Human Services Food and Drug Administration, Center for Drug Evaluation and Research (CDER). Assessment of abuse potential of drugs: guidance for industry. January, 2017; Griffiths R R, et al. Drug Alcohol Depend. 2003; 70(3):S41-54; Schoedel K, Sellers E. Clin Pharmacol Ther. 2008; 83(4):622-626). The 2 doses were selected based on their safety and tolerability in the dose selection phase, as assessed during sentinel dosing (described below) by the safety and tolerability endpoints (described below). […]\nMOAA/S scores were assessed before dose administrations and at multiple time points (1, 2, 3, 4, 5, 6, 7, 8, 10, 12, and 24 hours) after dosing using a 6-point scale, ranging from 0 (no response after painful trapezius squeeze) to 5 (responds readily to name spoken in a normal tone; Table 18). Electrocardiogram measures and the C-SSRS were assessed during screening, admission, at Day 3, and/or at early termination, and AEs/SAEs were assessed on an ongoing basis during enrollment in the study. […]"}, "[2]": {"tested_on": "synaptic and extrasynaptic GABAA receptors", "details": "in vitro; cited from earlier work"}, "[3]": {"tested_on": "patients with MDD", "test": "Phase 3 clinical trial of Compound (1) 30 mg in MDD : TEAEs", "assay_type": "in vivo, human", "details": "previous Phase 3 clinical trial", "text": "The study design and results, if applicable, of the clinical trials identified by the NCT numbers are each incorporated by reference herein in its entirety.\n(§1) The majority of patients receiving Compound (1) and experiencing a TEAE reported TEAEs mild and moderate in severity: clinical trial of Example 4 94%, Phase 2 clinical trial conducted by Applicant 100%, previous Phase 3 clinical trial conducted by Applicant 98%, and clinical trial of Example 1 95.0%."}, "[4]": {"details": "aqueous solution formulation (Hoffmann 2020); cited from earlier work"}, "[5]": {"tested_on": "patients with PPD or MDD", "test": "Most common TEAEs across clinical trials in PPD or MDD: overall ranges", "assay_type": "in vivo, human", "details": "30 or 50 mg (N = 583)", "text": "as §1"}, "[6]": {"tested_on": "nondependent, recreational users of CNS depressants", "test": "Abuse potential main study, treatment phase: TEAEs", "assay_type": "in vivo, human", "experimental": "The main study consisted of 4 phases (FIG. 30B). The screening phase was a 1-day visit occurring within 21 days of the beginning of the qualification phase. The qualification phase was a 4-day, inpatient period to ensure participants could discriminate between alprazolam (active comparator) and placebo, and that they could tolerate the alprazolam 2-mg doses. Participants received single-oral doses of alprazolam 2 mg and placebo in a crossover manner 24 hours apart, and if they could discriminate between the two medications, they continued to the treatment phase. The treatment phase was a double-blind, active- and placebo-controlled, 6-way crossover design where participants were randomized equally to a single oral dose of 1 of 6 treatments: placebo, alprazolam (1.5 and 3 mg), and Compound (1) (30, 60, and 90 mg). The Compound (1) doses were based on the results from the first part, dose selection, and treatments were separated by 7 days. The follow-up phase was a 1-day visit occurring 7 (2) days after the treatment phase.\nSafety and tolerability endpoints included the frequency and severity of AEs and SAEs, the change from baseline in clinical laboratory assessments, vital signs, and ECG, and suicidality assessed by the Columbia-Suicide Severity Rating Scale (C-SSRS).\nThe dose selection safety set included all participants who received 1 dose of Compound (1). The main study qualification safety set included all participants who received ≥1 dose of alprazolam. For the treatment phase, the randomized set included all participants who were randomized and the safety set included all participants who received ≥1 dose of Compound (1) or alprazolam. The completer set included all participants in the randomized set who completed all treatment periods, had sufficient data for evaluation of the primary endpoint, and had ≥1 observation within 2 hours of Tmax for each treatment for Drug Liking VAS scores. […] The PK set included all participants in the treatment phase who received 1 dose of Compound (1) and had 1 PK sample after dosing."}, "[7]": {"details": "treatment phase, Compound (1) 30 mg (n = 65)"}, "[8]": {"details": "treatment phase, Compound (1) 60 mg (n = 66)"}, "[9]": {"details": "treatment phase, Compound (1) 90 mg (n = 67)"}}}
{"smiles": "C[C@@]1(O)CC[C@H]2[C@H](CC[C@@H]3[C@@H]2CC[C@]2(C)[C@@H](C(=O)Cn4cc(C#N)cn4)CC[C@@H]32)C1", "note": "[Compound (1), 1-(2-((3R,5R,8R,9R,10S,13S,14S,17S)-3-hydroxy-3,13-dimethylhexadecahydro-1H-cyclopenta[a]phenanthren-17-yl)-2-oxoethyl)-1H-pyrazole-4-carbonitrile]", "values": [{"measurement": "Time for all MOAA/S scores to return to baseline score of 5", "setting": "[1]", "value": "≤ 8", "unit": "hours postdose"}, {"measurement": "MOAA/S score (mild sedation) in 1 to 4 participants of at least 1 cohort", "setting": "[1]; 2-7 hours postdose", "value": "2-4"}, {"measurement": "GABAA receptor binding and current potentiation", "setting": "[2]", "value": "bind to both synaptic and extrasynaptic GABAA receptors, potentiating both phasic and tonic currents"}, {"measurement": "Patients with a TEAE whose TEAEs were mild and moderate in severity", "setting": "[3]", "value": 98, "unit": "%"}, {"measurement": "T½ values reported by a prior study", "setting": "[4]", "value": "14 to 19", "unit": "h"}, {"measurement": "Any TEAE, overall range across trials", "setting": "[5]", "value": "53.3-60.3%"}, {"measurement": "Diarrhea, overall range across trials", "setting": "[5]", "value": "0-6.4%"}, {"measurement": "Dizziness, overall range across trials", "setting": "[5]", "value": "5.7-13.8%"}, {"measurement": "Fatigue, overall range across trials", "setting": "[5]", "value": "1.1-6.8%"}, {"measurement": "Headache, overall range across trials", "setting": "[5]", "value": "6.3-17.8%"}, {"measurement": "Nausea, overall range across trials", "setting": "[5]", "value": "3.6-11.1%"}, {"measurement": "Sedation, overall range across trials", "setting": "[5]", "value": "4.4-7.5%"}, {"measurement": "Somnolence, overall range across trials", "setting": "[5]", "value": "6.7-15.4%"}, {"measurement": "URTI, overall range across trials", "setting": "[5]", "value": "0-7.7%"}, {"measurement": "Severe TEAEs and deaths", "setting": "[6]; 30, 60, 90 mg single doses", "value": "no reported severe TEAEs nor deaths"}, {"measurement": "Back pain (TEAE)", "setting": "[6]; [7]", "value": 0, "unit": "n"}, {"measurement": "Confusional state (TEAE)", "setting": "[6]; [7]", "value": 0, "unit": "n"}, {"measurement": "Diarrhea (TEAE)", "setting": "[6]; [7]", "value": 0, "unit": "n"}, {"measurement": "Feeling drunk (TEAE)", "setting": "[6]; [7]", "value": 0, "unit": "n"}, {"measurement": "Fine motor skill dysfunction (TEAE)", "setting": "[6]; [7]", "value": 0, "unit": "n"}, {"measurement": "Hiccups (TEAE)", "setting": "[6]; [7]", "value": 0, "unit": "n"}, {"measurement": "Irritability (TEAE)", "setting": "[6]; [7]", "value": 0, "unit": "n"}, {"measurement": "Lacrimation increased (TEAE)", "setting": "[6]; [7]", "value": 0, "unit": "n"}, {"measurement": "Swelling face (TEAE)", "setting": "[6]; [7]", "value": 0, "unit": "n"}, {"measurement": "Tremor (TEAE)", "setting": "[6]; [7]", "value": 0, "unit": "n"}, {"measurement": "Upper respiratory tract infection (TEAE)", "setting": "[6]; [7]", "value": 0, "unit": "n"}, {"measurement": "Back pain (TEAE)", "setting": "[6]; [8]", "value": 0, "unit": "n"}, {"measurement": "Confusional state (TEAE)", "setting": "[6]; [8]", "value": 0, "unit": "n"}, {"measurement": "Fine motor skill dysfunction (TEAE)", "setting": "[6]; [8]", "value": 0, "unit": "n"}, {"measurement": "Hiccups (TEAE)", "setting": "[6]; [8]", "value": 0, "unit": "n"}, {"measurement": "Irritability (TEAE)", "setting": "[6]; [8]", "value": 0, "unit": "n"}, {"measurement": "Lacrimation increased (TEAE)", "setting": "[6]; [8]", "value": 0, "unit": "n"}, {"measurement": "Swelling face (TEAE)", "setting": "[6]; [8]", "value": 0, "unit": "n"}, {"measurement": "Upper respiratory tract infection (TEAE)", "setting": "[6]; [8]", "value": 0, "unit": "n"}, {"measurement": "Back pain (TEAE)", "setting": "[6]; [9]", "value": 0, "unit": "n"}, {"measurement": "Diarrhea (TEAE)", "setting": "[6]; [9]", "value": 0, "unit": "n"}, {"measurement": "Hiccups (TEAE)", "setting": "[6]; [9]", "value": 0, "unit": "n"}, {"measurement": "Lacrimation increased (TEAE)", "setting": "[6]; [9]", "value": 0, "unit": "n"}, {"measurement": "Upper respiratory tract infection (TEAE)", "setting": "[6]; [9]", "value": 0, "unit": "n"}]}
